From the Deep4Chem optical property database
Several values for one entry are separate records, joined by “and”; a condition that tells them apart may be missing. Identical values can stand only once.

Test: solvent given as SMILES

**Q.** Which emission maximum (in C1CCCCC1) does the source give for `CC1=[N+]2C(=C(c3ccccc3C)c3ccc(C)n3[B-]2(F)F)C=C1c1cc2n(c1)[B-](F)(F)[N+]1=CC=CC1=C2c1c(C)cc(C)cc1C` here?
**A.** 640 nm

**Q.** And the emission maximum (in CCOC(C)=O)?
**A.** 679 nm

**Q.** Which results are given for `Nc1ccccc1C(=O)O`?
**A.** emission maximum (in C1CCCCC1): 387 nm; emission maximum (in C1COCCO1): 395 nm; emission maximum (in CC#N): 397 nm; emission maximum (in CC(C)=O): 394 nm; emission maximum (in CCO): 407 nm; emission maximum (in CO): 406 nm; emission maximum (in CS(C)=O): 400 nm; emission maximum (in O): 400 nm and 397 nm; emission maximum (in OCC(F)(F)F): 423 nm; emission maximum (in c1ccccc1): 394 nm

**Q.** Which emission maximum (in ClCCl) does the source give for `CC1=CC(C)=[N+]2C1=C(c1c(-c3ccccn3)nc3ccccn13)c1c(C)cc(C)n1[B-]2(F)F` here?
**A.** 536 nm

**Q.** Which results are given for `CCOC(=O)C1=CN(c2ccccc2)C=CC1c1ccccc1` (centres undefined)?
**A.** emission maximum (in C1CCOC1): 419 nm; emission maximum (in CO): 442 nm

**Q.** With `CC1(C)c2ccccc2N(c2ccc3c(c2)c2cc(N4c5ccccc5C(C)(C)c5ccccc54)ccc2c2nc(C#N)c(C#N)nc32)c2ccccc21` as the molecule, how does the emission maximum (in C1COCCO1) read?
**A.** 753.65 nm

**Q.** And the emission maximum (in CCCCCC)?
**A.** 572.45 nm

**Q.** And the emission maximum (in Cc1ccccc1)?
**A.** 678 nm

**Q.** And the emission maximum (in O=P(c1ccccc1)(c1ccccc1)c1cccc(-c2cc(-n3c4ccccc4c4ccccc43)cc(-n3c4ccccc4c4ccccc43)c2)n1)?
**A.** 618 nm

**Q.** With `COc1ccc(-c2c3ccccc3c(C#Cc3ccccc3)c3ccccc23)cc1` as the molecule, how does the emission maximum (in ClCCl) read?
**A.** 452 nm

**Q.** With `CC(=O)OC[C@H]1O[C@@H](OCC#Cc2ccc(C3=C4C(C)=CC(/C=C/c5ccc([N+](C)(C)C)cc5)=[N+]4[B-](F)(F)n4c(/C=C/c5ccc([N+](C)(C)C)cc5)cc(C)c43)cc2)[C@H](OC(C)=O)C(OC(C)=O)[C@@H]1OC(C)=O` (some centres undefined) as the molecule, how does the emission maximum (in CC#N) read?
**A.** 629 nm

**Q.** With `CCCC1=Cc2nc1ccc1[nH]c(cc1CCC)c1nc(c(OC(C)=O)cc3[nH]c2cc3CCC)C(CCC)=C1` as the molecule, how does the emission maximum (in Cc1ccccc1) read?
**A.** 650 nm

**Q.** Which emission maximum (in CCO) does the source give for `CC1=C(Cl)C(/C=C/c2ccc3c(c2)c2ccccc2n3Cc2cn(CCC[P+](c3ccccc3)(c3ccccc3)c3ccccc3)nn2)=[N+]2C1=C(c1ccc(I)cc1)c1c(C)c(Cl)c(C)n1[B-]2(F)F` here?
**A.** 650 nm

**Q.** Which emission maximum (in C1CCOC1) does the source give for `c1ccc(-c2nc(-c3ccc(-c4nc(-c5ccccc5)c(-c5ccccc5)[nH]4)cc3)[nH]c2-c2ccccc2)cc1` here?
**A.** 421 nm

**Q.** What about the emission maximum (in CC#N) of the same molecule?
**A.** 423.5 nm and 424 nm

**Q.** And the emission maximum (in CC(=O)O)?
**A.** 482 nm

**Q.** And the emission maximum (in CC(C)=O)?
**A.** 420 nm

**Q.** And the emission maximum (in CCOC(C)=O)?
**A.** 420 nm

**Q.** What about the emission maximum (in CCOCC) of the same molecule?
**A.** 419 nm

**Q.** And the emission maximum (in CO)?
**A.** 417 nm

**Q.** What about the emission maximum (in CS(C)=O) of the same molecule?
**A.** 410 nm

**Q.** What about the emission maximum (in ClC(Cl)Cl) of the same molecule?
**A.** 437 nm

**Q.** With `O=c1[nH]nc(-c2ccc(/C=C/c3ccc(-c4n[nH]c(=O)o4)cc3)cc2)o1` as the molecule, how does the emission maximum (in CN(C)C=O) read?
**A.** 408 nm

**Q.** Which emission maximum (in C1CCCCC1) does the source give for `CN(C)C(=O)c1ccc(-c2nc3ccc(N(C)C)cc3s2)cc1` here?
**A.** 415 nm

**Q.** What about the emission maximum (in CC#N) of the same molecule?
**A.** 521 nm

**Q.** And the emission maximum (in CC(C)O)?
**A.** 518 nm

**Q.** And the emission maximum (in CO)?
**A.** 543 nm

**Q.** What about the emission maximum (in CS(C)=O) of the same molecule?
**A.** 534 nm

**Q.** What about the emission maximum (in ClC(Cl)Cl) of the same molecule?
**A.** 472 nm

**Q.** And the emission maximum (in c1ccccc1)?
**A.** 457 nm

**Q.** With `O=C([O-])c1ccccc1-c1c2cc(I)c(=O)c(I)c-2oc2c(I)c([O-])c(I)cc12` as the molecule, how does the emission maximum (in CC(C)O) read?
**A.** 557 nm

**Q.** And the emission maximum (in CCO)?
**A.** 551 nm

**Q.** What about the emission maximum (in CO) of the same molecule?
**A.** 545 nm

**Q.** What about the emission maximum (in O) of the same molecule?
**A.** 534 nm

**Q.** What does the source list for `CN(C)c1ccc2c(c1)C(=O)NC2=O`?
**A.** emission maximum (in C1CCOC1): 459 nm; emission maximum (in C1COCCO1): 457 nm; emission maximum (in CC#N): 490 nm; emission maximum (in CC(C)(C)O): 516 nm; emission maximum (in CC(C)=O): 483 nm; emission maximum (in CC(C)O): 523 nm; emission maximum (in CCOCC): 440 nm; emission maximum (in CO): 534 nm; emission maximum (in O): 562 nm

**Q.** With `Fc1ccc(N(c2ccc(F)cc2)c2ccc3c4cccc5c(N(c6ccc(F)cc6)c6ccc(F)cc6)ccc(c6cccc2c63)c54)cc1` as the molecule, how does the emission maximum (in C1CCCCC1) read?
**A.** 529 nm

**Q.** What about the emission maximum (in C1CCOC1) of the same molecule?
**A.** 544 nm

**Q.** And the emission maximum (in CC#N)?
**A.** 548 nm

**Q.** What about the emission maximum (in Cc1ccccc1) of the same molecule?
**A.** 540 nm

**Q.** What about the emission maximum (in ClCCl) of the same molecule?
**A.** 546 nm

**Q.** Which emission maximum (in ClCCl) does the source give for `CCCCCCn1c(=O)c2c3[nH]c4ccccc4[nH]c3c3c(=O)n(CCCCCC)c(=O)c3c2c1=O` here?
**A.** 641 nm

**Q.** For `[C-]#[N+]c1ccc(-c2ccc(N(C)C)cc2)cc1`, which emission maximum (in C1CCCCC1) is on record?
**A.** 360 nm

**Q.** And the emission maximum (in C1CCOC1)?
**A.** 408 nm

**Q.** What about the emission maximum (in C1COCCO1) of the same molecule?
**A.** 397 nm

**Q.** And the emission maximum (in CC#N)?
**A.** 429 nm

**Q.** What about the emission maximum (in CC(C)=O) of the same molecule?
**A.** 422 nm

**Q.** What about the emission maximum (in CCCCCC) of the same molecule?
**A.** 357 nm

**Q.** What about the emission maximum (in CCOC(C)=O) of the same molecule?
**A.** 406 nm

**Q.** What about the emission maximum (in CN(C)C=O) of the same molecule?
**A.** 433 nm

**Q.** And the emission maximum (in CO)?
**A.** 430 nm

**Q.** What about the emission maximum (in CS(C)=O) of the same molecule?
**A.** 447 nm

**Q.** What about the emission maximum (in Cc1ccccc1) of the same molecule?
**A.** 387 nm

**Q.** What about the emission maximum (in ClC(Cl)Cl) of the same molecule?
**A.** 405 nm

**Q.** And the emission maximum (in ClCCl)?
**A.** 412 nm

**Q.** And the emission maximum (in O)?
**A.** 417 nm

**Q.** What about the emission maximum (in c1ccncc1) of the same molecule?
**A.** 422 nm
